Test results reported in publication PMC11684029, “Discovery of VU6024578/BI02982816: An mGlu1 Positive Allosteric Modulator with Efficacy in Preclinical Antipsychotic and Cognition Models” (Journal of Medicinal Chemistry, 2024).

Key:
Assay in all cases: Eurofins radioligand binding panel
[1] = target: T1, 5-HT1B (Homo sapiens, UniProt P28222); conditions: antagonist radioligand
T1 construct: Eurofins
From the text: (§1) Table S1. Eurofins Lead Profiling Screen Data
(§2) This is a radioligand binding panel of 80 targets including GPCRs, ion channels, transporters and nuclear hormones. Biochemical assay results are presented as the percent inhibition of specific […]
(§3) Results showing an inhibition or stimulation higher than 50% are considered to represent significant effect and are highlighted

[2] = target: T2, 5-HT2A (Homo sapiens, UniProt P28223); conditions: antagonist radioligand
T2 construct: Eurofins
From the text: as §1, §2, §3

[3] = target: T3, 5-HT3 (Homo sapiens, UniProt P46098); conditions: antagonist radioligand
T3 construct: Eurofins
From the text: as §1, §2, §3

[4] = target: T4, 5-HT5a (Homo sapiens, UniProt P47898); conditions: agonist radioligand
T4 construct: Eurofins
From the text: as §1, §2, §3

[5] = target: T5, 5-HT6 (Homo sapiens, UniProt P50406); conditions: agonist radioligand
T5 construct: Eurofins
From the text: as §1, §2, §3

[6] = target: T6, 5-HT7 (Homo sapiens, UniProt P34969); conditions: agonist radioligand
T6 construct: Eurofins
From the text: as §1, §2, §3

[7] = tested on: Cl- channel (GABA-gated); conditions: antagonist radioligand
From the text: as §1, §2, §3

[8] = target: T7, ETA (Homo sapiens, UniProt P25101); conditions: agonist radioligand
T7 construct: Eurofins (panel run as a service)
From the text: as §1, §2, §3

[9] = target: T8, ETB (Homo sapiens, UniProt P24530); conditions: agonist radioligand
T8 construct: Eurofins (panel run as a service)
From the text: as §1, §2, §3

[10] = target: T9, GAL1 (Homo sapiens, UniProt P47211); conditions: agonist radioligand
T9 construct: Eurofins (panel run as a service)
From the text: as §1, §2, §3

[11] = target: T10, GAL2 (Homo sapiens, UniProt O43603); conditions: agonist radioligand
T10 construct: Eurofins (panel run as a service)
From the text: as §1, §2, §3

[12] = target: T11, GR (Homo sapiens, UniProt P04150); conditions: agonist radioligand
T11 construct: Eurofins
From the text: as §1, §2, §3

[13] = target: T12, H1 (Homo sapiens, UniProt P35367); conditions: antagonist radioligand
T12 construct: Eurofins (panel run as a service)
From the text: as §1, §2, §3

[14] = target: T13, H2 (Homo sapiens, UniProt P25021); conditions: antagonist radioligand
T13 construct: Eurofins (panel run as a service)
From the text: as §1, §2, §3

[15] = target: T14, IP (PGI2) (Homo sapiens, UniProt P43119); conditions: agonist radioligand
T14 construct: Eurofins
From the text: as §1, §2, §3

[16] = target: T15, M2 (Homo sapiens, UniProt P08172); conditions: antagonist radioligand
T15 construct: Eurofins
From the text: as §1, §2, §3

[17] = target: T16, M3 (Homo sapiens, UniProt P20309); conditions: antagonist radioligand
T16 construct: Eurofins
From the text: as §1, §2, §3

[18] = target: T17, M4 (Homo sapiens, UniProt P08173); conditions: antagonist radioligand
T17 construct: Eurofins
From the text: as §1, §2, §3

[19] = target: T18, M5 (Homo sapiens, UniProt P08912); conditions: antagonist radioligand
T18 construct: Eurofins
From the text: as §1, §2, §3

[20] = target: T19, MC4 (Homo sapiens, UniProt P32245); conditions: agonist radioligand
T19 construct: Eurofins
From the text: as §1, §2, §3

[21] = target: T20, MT1 (ML1A) (Homo sapiens, UniProt P48039); conditions: agonist radioligand
T20 construct: Eurofins
From the text: as §1, §2, §3

[22] = target: T21, NK1 (Homo sapiens, UniProt P25103); conditions: agonist radioligand
T21 construct: Eurofins
From the text: as §1, §2, §3

[23] = target: T22, NK3 (Homo sapiens, UniProt P29371); conditions: antagonist radioligand
T22 construct: Eurofins
From the text: as §1, §2, §3

[24] = target: T23, NTS1 (NT1) (Homo sapiens, UniProt P30989); conditions: agonist radioligand
T23 construct: Eurofins
From the text: as §1, §2, §3

[25] = tested on: P2X; conditions: agonist radioligand
From the text: as §1, §2, §3

[26] = target: T24, PAC1 (PACAP) (Homo sapiens, UniProt P41586); conditions: agonist radioligand
T24 construct: Eurofins
From the text: as §1, §2, §3

[27] = target: T25, PPARgamma (Homo sapiens, UniProt P37231); conditions: agonist radioligand
T25 construct: Eurofins
From the text: as §1, §2, §3

[28] = target: T26, VPAC1 (VIP1) (Homo sapiens, UniProt P32241); conditions: agonist radioligand
T26 construct: Eurofins
From the text: as §1, §2, §3

[29] = target: T27, Y1 (Homo sapiens, UniProt P25929); conditions: agonist radioligand
T27 construct: Eurofins
From the text: as §1, §2, §3

[30] = target: T28, Y2 (Homo sapiens, UniProt P49146); conditions: agonist radioligand
T28 construct: Eurofins
From the text: as §1, §2, §3

[31] = target: T29, dopamine transporter (Homo sapiens, UniProt Q01959); conditions: antagonist radioligand
T29 construct: Eurofins
From the text: as §1, §2, §3

T2 sequence (P28223 whole entry): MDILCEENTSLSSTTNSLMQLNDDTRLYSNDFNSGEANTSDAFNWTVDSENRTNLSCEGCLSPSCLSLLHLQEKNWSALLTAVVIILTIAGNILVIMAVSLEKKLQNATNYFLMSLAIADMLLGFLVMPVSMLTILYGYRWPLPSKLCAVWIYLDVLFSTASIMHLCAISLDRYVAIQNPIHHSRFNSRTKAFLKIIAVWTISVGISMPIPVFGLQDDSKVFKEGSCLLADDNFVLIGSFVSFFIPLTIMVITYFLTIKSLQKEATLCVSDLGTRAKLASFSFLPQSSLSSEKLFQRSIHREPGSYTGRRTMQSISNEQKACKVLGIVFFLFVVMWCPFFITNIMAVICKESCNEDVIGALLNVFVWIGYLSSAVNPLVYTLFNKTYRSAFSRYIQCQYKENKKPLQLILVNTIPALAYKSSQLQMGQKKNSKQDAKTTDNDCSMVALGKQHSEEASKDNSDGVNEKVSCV
T1 sequence (P28222 whole entry): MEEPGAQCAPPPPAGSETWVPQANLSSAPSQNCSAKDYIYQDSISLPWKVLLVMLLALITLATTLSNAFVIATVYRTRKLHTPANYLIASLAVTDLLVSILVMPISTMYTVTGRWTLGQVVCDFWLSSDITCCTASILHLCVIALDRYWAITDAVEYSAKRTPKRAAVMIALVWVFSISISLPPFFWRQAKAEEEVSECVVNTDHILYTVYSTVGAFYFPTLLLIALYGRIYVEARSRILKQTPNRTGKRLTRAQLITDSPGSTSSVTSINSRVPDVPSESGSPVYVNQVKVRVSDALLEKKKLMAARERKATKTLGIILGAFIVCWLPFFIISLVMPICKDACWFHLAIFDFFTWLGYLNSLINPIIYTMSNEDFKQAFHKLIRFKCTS
T6 sequence (P34969 whole entry): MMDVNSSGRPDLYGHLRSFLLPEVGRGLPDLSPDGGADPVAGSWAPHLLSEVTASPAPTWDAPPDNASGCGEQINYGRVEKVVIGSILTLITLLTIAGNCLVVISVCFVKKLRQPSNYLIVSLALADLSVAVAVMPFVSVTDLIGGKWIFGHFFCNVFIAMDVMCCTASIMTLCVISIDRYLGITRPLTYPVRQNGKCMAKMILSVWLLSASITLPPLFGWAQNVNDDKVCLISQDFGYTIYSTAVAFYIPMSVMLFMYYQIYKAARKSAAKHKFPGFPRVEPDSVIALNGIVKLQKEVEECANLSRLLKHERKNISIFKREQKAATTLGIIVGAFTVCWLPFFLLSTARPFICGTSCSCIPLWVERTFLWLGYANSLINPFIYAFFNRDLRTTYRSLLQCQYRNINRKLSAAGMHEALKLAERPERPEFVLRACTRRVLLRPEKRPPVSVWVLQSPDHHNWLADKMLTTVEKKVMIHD
T12 sequence (P35367 whole entry): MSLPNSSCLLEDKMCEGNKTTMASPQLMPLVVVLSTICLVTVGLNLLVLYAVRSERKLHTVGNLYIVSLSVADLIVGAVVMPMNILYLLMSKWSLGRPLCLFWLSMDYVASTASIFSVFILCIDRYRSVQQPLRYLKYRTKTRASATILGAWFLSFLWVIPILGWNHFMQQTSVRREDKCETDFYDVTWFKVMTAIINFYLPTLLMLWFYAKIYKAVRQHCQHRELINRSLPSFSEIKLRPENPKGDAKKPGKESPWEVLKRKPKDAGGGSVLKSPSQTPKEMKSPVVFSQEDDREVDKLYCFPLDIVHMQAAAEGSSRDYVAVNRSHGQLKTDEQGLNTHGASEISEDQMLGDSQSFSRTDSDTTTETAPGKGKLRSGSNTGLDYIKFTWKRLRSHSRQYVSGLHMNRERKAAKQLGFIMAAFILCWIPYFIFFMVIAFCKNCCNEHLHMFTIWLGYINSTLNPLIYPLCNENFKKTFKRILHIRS
T10 sequence (O43603 whole entry): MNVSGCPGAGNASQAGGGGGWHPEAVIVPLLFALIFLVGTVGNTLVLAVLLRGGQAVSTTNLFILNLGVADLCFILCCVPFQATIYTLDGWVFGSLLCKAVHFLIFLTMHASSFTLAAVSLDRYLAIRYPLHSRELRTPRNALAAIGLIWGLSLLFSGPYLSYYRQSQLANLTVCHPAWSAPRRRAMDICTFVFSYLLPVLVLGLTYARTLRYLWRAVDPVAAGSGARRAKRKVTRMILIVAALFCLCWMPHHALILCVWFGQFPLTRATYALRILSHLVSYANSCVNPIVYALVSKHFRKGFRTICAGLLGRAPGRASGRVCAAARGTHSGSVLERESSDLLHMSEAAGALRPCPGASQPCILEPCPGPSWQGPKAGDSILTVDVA
T11 sequence (P04150 whole entry): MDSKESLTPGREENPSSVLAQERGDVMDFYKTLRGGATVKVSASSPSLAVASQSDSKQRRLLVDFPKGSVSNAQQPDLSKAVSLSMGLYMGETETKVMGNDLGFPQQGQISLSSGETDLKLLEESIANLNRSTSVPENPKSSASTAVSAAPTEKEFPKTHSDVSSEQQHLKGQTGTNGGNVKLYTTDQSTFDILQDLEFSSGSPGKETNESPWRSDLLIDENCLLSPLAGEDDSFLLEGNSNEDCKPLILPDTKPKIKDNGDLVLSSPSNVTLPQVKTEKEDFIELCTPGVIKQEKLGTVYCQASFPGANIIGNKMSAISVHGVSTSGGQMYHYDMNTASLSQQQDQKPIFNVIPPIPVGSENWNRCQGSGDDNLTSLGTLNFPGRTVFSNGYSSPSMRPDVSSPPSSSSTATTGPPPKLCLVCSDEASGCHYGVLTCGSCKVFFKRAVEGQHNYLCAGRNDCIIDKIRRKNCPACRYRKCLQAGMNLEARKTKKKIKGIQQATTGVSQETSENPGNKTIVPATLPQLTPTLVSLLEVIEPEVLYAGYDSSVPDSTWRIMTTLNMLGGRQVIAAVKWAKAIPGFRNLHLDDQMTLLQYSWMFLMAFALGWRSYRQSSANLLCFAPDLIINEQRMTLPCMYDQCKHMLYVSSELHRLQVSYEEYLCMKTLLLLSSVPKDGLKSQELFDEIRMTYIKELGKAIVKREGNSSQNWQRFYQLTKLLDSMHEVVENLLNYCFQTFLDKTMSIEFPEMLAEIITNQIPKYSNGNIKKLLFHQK
T13 sequence (P25021 whole entry): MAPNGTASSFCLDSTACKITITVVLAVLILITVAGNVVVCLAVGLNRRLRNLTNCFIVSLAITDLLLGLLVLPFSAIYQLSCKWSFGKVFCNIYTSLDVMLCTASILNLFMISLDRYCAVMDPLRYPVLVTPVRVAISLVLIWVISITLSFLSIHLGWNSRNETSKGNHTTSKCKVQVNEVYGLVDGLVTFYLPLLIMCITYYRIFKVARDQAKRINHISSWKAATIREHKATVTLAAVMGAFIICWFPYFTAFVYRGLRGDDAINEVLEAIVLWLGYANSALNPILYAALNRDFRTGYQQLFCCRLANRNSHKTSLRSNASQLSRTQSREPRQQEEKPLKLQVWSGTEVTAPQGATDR
T24 sequence (P41586 21-468): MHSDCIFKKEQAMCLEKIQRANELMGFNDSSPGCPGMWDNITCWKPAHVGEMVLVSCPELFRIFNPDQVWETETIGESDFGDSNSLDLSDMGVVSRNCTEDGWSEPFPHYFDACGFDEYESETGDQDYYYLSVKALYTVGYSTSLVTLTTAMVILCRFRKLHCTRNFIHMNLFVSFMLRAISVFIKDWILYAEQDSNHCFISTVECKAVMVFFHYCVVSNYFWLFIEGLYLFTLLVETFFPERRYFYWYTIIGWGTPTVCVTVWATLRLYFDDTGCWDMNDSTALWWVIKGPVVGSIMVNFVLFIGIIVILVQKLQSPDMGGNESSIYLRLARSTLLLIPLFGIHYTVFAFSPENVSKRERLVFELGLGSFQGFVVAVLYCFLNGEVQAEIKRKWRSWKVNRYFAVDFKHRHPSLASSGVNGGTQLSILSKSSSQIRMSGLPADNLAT
T20 sequence (P48039 whole entry): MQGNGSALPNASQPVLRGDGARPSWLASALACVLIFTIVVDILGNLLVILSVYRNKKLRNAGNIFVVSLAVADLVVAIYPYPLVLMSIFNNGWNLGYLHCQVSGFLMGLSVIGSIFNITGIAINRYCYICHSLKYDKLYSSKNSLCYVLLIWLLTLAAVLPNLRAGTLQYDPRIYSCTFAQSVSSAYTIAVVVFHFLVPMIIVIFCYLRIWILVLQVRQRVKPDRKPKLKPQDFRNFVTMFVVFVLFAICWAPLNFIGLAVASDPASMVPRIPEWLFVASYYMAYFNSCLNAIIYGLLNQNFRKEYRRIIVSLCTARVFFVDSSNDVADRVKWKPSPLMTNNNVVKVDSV
T9 sequence (P47211 whole entry): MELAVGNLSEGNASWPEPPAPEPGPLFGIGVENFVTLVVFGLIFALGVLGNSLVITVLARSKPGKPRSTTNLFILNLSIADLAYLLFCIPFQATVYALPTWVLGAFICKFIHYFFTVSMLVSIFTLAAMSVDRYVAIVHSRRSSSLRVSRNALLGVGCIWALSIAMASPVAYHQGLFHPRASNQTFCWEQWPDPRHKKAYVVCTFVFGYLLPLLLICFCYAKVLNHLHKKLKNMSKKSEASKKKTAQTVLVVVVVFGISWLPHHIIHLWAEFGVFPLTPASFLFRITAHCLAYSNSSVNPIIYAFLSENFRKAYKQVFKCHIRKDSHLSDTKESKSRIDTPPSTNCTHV
T21 sequence (P25103 whole entry): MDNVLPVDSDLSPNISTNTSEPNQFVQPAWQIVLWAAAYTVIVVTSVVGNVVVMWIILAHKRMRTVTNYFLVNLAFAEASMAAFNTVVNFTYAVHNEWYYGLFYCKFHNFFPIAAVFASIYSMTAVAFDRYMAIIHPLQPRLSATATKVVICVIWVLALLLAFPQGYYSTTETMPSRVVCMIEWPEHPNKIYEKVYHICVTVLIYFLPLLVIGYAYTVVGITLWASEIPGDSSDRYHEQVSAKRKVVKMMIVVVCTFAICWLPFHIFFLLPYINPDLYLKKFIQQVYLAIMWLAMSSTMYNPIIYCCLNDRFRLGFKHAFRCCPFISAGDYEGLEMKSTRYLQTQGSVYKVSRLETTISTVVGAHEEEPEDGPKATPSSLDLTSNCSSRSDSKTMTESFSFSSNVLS

## Cn1nc(-c2ccnn2C)cc1CNC(=O)c1cc(-c2ccco2)ccc1Cl [Compound 19d, 2-Chloro-N-((1,2′-dimethyl-1H,2’H-[3,3′-bipyrazol]-5-yl)methyl)-5-(furan-2-yl)benzamide]
[1]
  inhibition at 10 µM: 11%
[2]
  inhibition at 10 µM: -1%
[3]
  inhibition at 10 µM: 2%
[4]
  inhibition at 10 µM: -2%
[5]
  inhibition at 10 µM: -7%
[6]
  inhibition at 10 µM: -4%
[7]
  % Inhibition at 10 µM: 9%
[8]
  inhibition at 10 µM: -6%
[9]
  inhibition at 10 µM: -27%
[10]
  inhibition at 10 µM: -4%
[11]
  inhibition at 10 µM: -9%
[12]
  inhibition at 10 µM: 0%
[13]
  inhibition at 10 µM: 6%
[14]
  inhibition at 10 µM: -31%
[15]
  inhibition at 10 µM: -7%
[16]
  inhibition at 10 µM: 18%
[17]
  inhibition at 10 µM: 2%
[18]
  inhibition at 10 µM: 11%
[19]
  inhibition at 10 µM: 3%
[20]
  inhibition at 10 µM: 14%
[21]
  inhibition at 10 µM: 17%
[22]
  inhibition at 10 µM: 46%
[23]
  inhibition at 10 µM: -8%
[24]
  inhibition at 10 µM: -1%
[25]
  % Inhibition at 10 µM: -6%
[26]
  inhibition at 10 µM: -2%
[27]
  inhibition at 10 µM: 2%
[28]
  inhibition at 10 µM: -4%
[29]
  inhibition at 10 µM: -7%
[30]
  inhibition at 10 µM: -18%
[31]
  inhibition at 10 µM: 37%
